Experimental data published in patent EP0481802A1, “Hydroxylated inhibitors of HIV reverse transcriptase” (MERCK & CO. INC., priority 1990, dated 1992).

Target: T1, recombinant HIV reverse transcriptase (HIV RTR) (Human immunodeficiency virus type 1 group M subtype B, UniProt P04585)
T1 construct: recombinant HIV reverse transcriptase (HIV RTR)
Assay: Reverse Transcriptase Assay
Assay type: biochemical
Details: incorporation of [³H] dGMP into acid-precipitable cDNA, dGTP and poly r(C)·oligo d(G)12-18 at Km, 37°C for 45 minutes; read-out: IC₅₀
Procedure: The assay measures the incorporation of tritiated deoxyguanosine monophosphate by recombinant HIV reverse transcriptase (HIV RTR) (or other RT) into acid-precipitable cDNA at the Km values of dGTP and poly r(C)·oligo d(G)₁₂₋₁₈.
Thirty uL of a reaction mixture containing equal volumes of: 500 mM Tris·HCl (pH 8.2), 300 mM MgCl₂, 1200 mM KCl, 10 mM DTT, 400 µg/mL poly r(c)·oligo d(G) [prepared by dissolving 1.5 mg (25 U) poly r(C)·oligo d(G) in 1.5 ml sterile distilled H₂O and diluting to 400 µg/ml], 0.1 µCi/µl [³H] dGTP, 160 µM dGTP, was added to 10 µl sterile distilled H₂O, 2.5 µl of potential inhibitor and 10 µL of 5 nM purified HIV RTR in tubes. The mixture was incubated at 37°C for 45 minutes.
After incubation is complete, the tubes were cooled in ice for 5 minutes. Ice-cold 13% TCA containing 10 mM NaPPi (200 µl) are added and the mixture incubated on ice for 30 minutes. The precipitated cDNA is removed by filtration using presoaked glass filters [TCA, NaPPi]. The precipitate is then washed with 1N HCl, 10 mM NaPPi.
The filter discs are then counted in a scintillation counter.
Under these conditions [dGTP] and poly r(C)·oligo d(G)₁₂₋₁₈ each are approximately equal to the appropriate Km value. […] Calculated IC₅₀ values for the lead compounds of this invention were approximately 94nM and (more than or equal to) 300 µM for L-697,914 and L-697,913, respectively. […]

Row | SMILES | IC50 [nM]
1 | Cc1[nH]c(=O)c(NCc2nc3ccccc3o2)cc1C(C)O [L-697,913, 3-[(benzoxazol-2-yl)methylamino]-5-(1-hydroxyethyl)-6-methylpyridin-2(1H)-one] | ≥ 300000
2 | CCc1cc(NCc2nc3ccccc3o2)c(=O)[nH]c1CO [L-697,914, 3-[(benzoxazol-2-yl)methylamino]-5-ethyl-6-hydroxymethylpyridin-2(1H)-one] | ~94
